# Literature values, collected in US20230390178A1, “Skin Care Compositions and Methods of Use” (Colgate-Palmolive Company, priority 2022, published 2023).
compound,measurement,value
O=C1O[C@H]([C@@H](O)CO)C(O)=C1O[C@H]1O[C@H](CO)[C@@H](O)[C@H](O)[C@H]1O [ascorbyl glucoside],Log P,−2.5
